# Assay results: US11845760B2, “PRMT5 inhibitors” (AMGEN INC., priority 2020, dated 2023)
# Like-named read-outs stand apart in the source and are kept apart here.
# What was measured:
# HCT116 MTAP null cells = assay: HCT116 MTAP null cell line proliferation (CellTiter-Glo cell viability, 6 days); type: cell-based; conditions: HCT116 MTAP null cells, 6 days of treatment, CellTiter-Glo cell viability, read-out: HCT-116 MTAP null IC50
# Protocol: (§1) To assess selective anti-proliferative activity of compounds of the invention in cells that have loss expression of MTAP, an HCT-116 isogenic cell line pair was utilized where one cell line was engineered to genetically knockout both MTAP alleles. Cell viability was then assessed in both the parent HCT-116 cell line and the MTAP null cell line after 6 days of treatment with compounds of the present invention. Selective anti-proliferative activity in the MTAP null cell line indicates MTA-cooperative inhibition of PRMT5 and ability to inhibit growth of cancer cells that have loss of MTAP.
# (§2) HCT116 MTAP null and WT cells were seeded in 96-well tissue culture plates in RPMI 1640 media+10% fetal bovine serum. Plates were incubated overnight at 37° C. and 5% CO2. Cells were then treated with an 8- or 9-point serial dilution of compound, using a top concentration of 1, or 10 μM, 1:3 serial dilution steps and, a DMSO-only control. Cells were incubated in the presence of drug for 6 days. Effects on cell viability were measured with the CellTiter-Glo® Luminescent Cell Viability Assay (Promega) per manufacturer's recommendation. Assay plates were read on an EnVision™ Multilabel Reader using the Ultra-Sensitive luminescence module. IC50 values were calculated with GraphPad Prism v 5.01 using symmetrical sigmoidal dose-response least squares fit with Hill slope fixed to −1 and top constrain to 100% or GeneData Screener using a 4-parameter logistic model to fit dose response curves.
# (§3) Alternatively, compounds could be assayed with a 384 well plate format:
# (§4) Compounds were pre-spotted into 384 well plates with a 22-point serial dilution of compound, using a top concentration of 10 or 50 μM, 1:2 serial dilution steps and, a DMSO-only control. HCT116 MTAP null and WT cells were then seeded as above and after 6 days effects on cell viability were measured with the CellTiter-Glo® Luminescent Cell Viability Assay (Promega). Assay plates were read as above and IC50 values were calculated with GeneData Screener using a 4-parameter logistic model to fit dose response curves. The reported IC50 represents the value where the curve transits 50% of control.
# HCT116 WT cells = assay: HCT116 WT cell line proliferation (CellTiter-Glo cell viability, 6 days); type: cell-based; conditions: HCT116 WT (parent) cells, 6 days of treatment, CellTiter-Glo cell viability, read-out: HCT-116 WT IC50
# Protocol: as §1, §2, §3, §4
"IC50 (HCT116 MTAP null cells; HCT116-MTAP null, 144 h) [nM]","IC50 (HCT116 WT cells; Homo sapiens, HCT-116, 144 h) [nM]",IC50 (HCT116 MTAP null cells) [nM],IC50 (HCT116 WT cells) [nM],Structure (SMILES)
58,1410,,,"Nc1nc2cc(Cl)c(C(=O)N3CCOCC3c3ccc(C(F)(F)F)cn3)cc2c2c1COC2 (racemic) [Example 344, (4-amino-7-chloro-1,3-dihydrofuro[3,4-c]quinolin-8-yl)((3R)-3-(5-(trifluoromethyl)-2-pyridinyl)-4-morpholinyl)methanone and (4-amino-7-chloro-1,3-dihydrofuro[3,4-c]quinolin-8-yl)((3S)-3-(5-(trifluoromethyl)-2-pyridinyl)-4-morpholinyl)methanone]"
330,21500,,,"Nc1nc2cnc(C(=O)N3CCOCC3c3c(F)cc(Br)cc3F)cc2c2c1COC2 (racemic) [Example 505, (4-amino-1,3-dihydrofuro[3,4-c][1,7]naphthyridin-8-yl)((3R)-3-(4-bromo-2,6-difluorophenyl)-4-morpholinyl)methanone and (4-amino-1,3-dihydrofuro[3,4-c][1,7]naphthyridin-8-yl)((3S)-3-(4-bromo-2,6-difluorophenyl)-4-morpholinyl)methanone]"
927,> 10000,,,"C[C@@H]1OCc2c1c(N)nc1cnc(C(=O)N3[C@H](C)COC[C@@H]3c3ccc(OC(F)(F)F)cn3)cc21 (racemic) [Example 379, ((3S)-4-amino-3-methyl-1,3-dihydrofuro[3,4-c][1,7]naphthyridin-8-yl)((3R,5S)-3-methyl-5-(5-(trifluoromethoxy)-2-pyridinyl)-4-morpholinyl)methanone and ((3S)-4-amino-3-methyl-1,3-dihydrofuro[3,4-c][1,7]naphthyridin-8-yl)((3S,5R)-3-methyl-5-(5-(trifluoromethoxy)-2-pyridinyl)-4-morpholinyl)methanone]"
,,175,9490,"Cn1ncc2c(N)nc3cc(F)c(C(=O)N4CC[C@@H](Oc5ccc(C(F)(F)F)cn5)C4)cc3c21 (single isomer, unassigned) [Example 475]"
313,14000,,,"C[C@H]1OCc2c1c(N)nc1cnc(C(=O)N3CCOC[C@H]3c3ccc(F)c(OC(F)(F)F)c3)cc21 (racemic) [Example 358, ((3R)-4-amino-3-methyl-1,3-dihydrofuro[3,4-c][1,7]naphthyridin-8-yl)((3R)-3-(4-fluoro-3-(trifluoromethoxy)phenyl)-4-morpholinyl)methanone and ((3R)-4-amino-3-methyl-1,3-dihydrofuro[3,4-c][1,7]naphthyridin-8-yl)((3S)-3-(4-fluoro-3-(trifluoromethoxy)phenyl)-4-morpholinyl)methanone]"
24,1010,,,"Cn1ncc2c3cc(C(=O)N4CCOC[C@@H]4c4ccc(S(F)(F)(F)(F)F)cc4)c(F)cc3nc(N)c21 [Example 544, (4-amino-7-fluoro-3-methyl-3H-pyrazolo[3,4-c]quinolin-8-yl)((3S)-3-(4-(pentafluoro-lambda~6~- sulfanyl)phenyl)-4-morpholinyl)methanone]"
810,6380,,,"Nc1nc2cnc(C(=O)N3CCOC[C@@H]3c3ccc(C(F)(F)F)cc3)cc2c2cncnc12 [Example 504, (5-aminopyrimido[4,5-c][1,7]naphthyridin-9-yl)((3S)-3-(4-(trifluoromethyl)phenyl)-4-morpholinyl)methanone]"
,,84,2570,"C[C@@H]1COC[C@H](c2ccc(OC(F)F)nn2)N1C(=O)c1cc2c3c(c(N)nc2cn1)COC3 (racemic) [Example 381, (4-amino-1,3-dihydrofuro[3,4-c][1,7]naphthyridin-8-yl)((3R,5S)-3-(6-(difluoromethoxy)-3-pyridazinyl)-5-methyl-4-morpholinyl)methanone and (4-amino-1,3-dihydrofuro[3,4-c][1,7]naphthyridin-8-yl)((3S,5R)-3-(6-(difluoromethoxy)-3-pyridazinyl)-5-methyl-4-morpholinyl)methanone]"
282,13300,,,"COc1ccc([C@H]2COC[C@@H](C)N2C(=O)c2ccc3nc(N)c4c(cnn4C)c3c2)nn1 [Example 538, (4-amino-3-methyl-3H-pyrazolo[3,4-c]quinolin-8-yl)((3S,5R)-3-(6-methoxy-3-pyridazinyl)-5-methyl-4-morpholinyl)methanone]"
11,167,,,"C[C@H]1COC[C@@H](c2ccc(C(F)(F)F)nc2)N1C(=O)c1cc2c3c(c(N)nc2cc1Cl)COC3 (racemic) [Example 302, (4-amino-7-chloro-1,3-dihydrofuro[3,4-c]quinolin-8-yl)((3R,5S)-3-methyl-5-(6-(trifluoromethyl)-3-pyridinyl)-4-morpholinyl)methanone and (4-amino-7-chloro-1,3-dihydrofuro[3,4-c]quinolin-8-yl)((3S,5R)-3-methyl-5-(6-(trifluoromethyl)-3-pyridinyl)-4-morpholinyl)methanone]"
33,867,,,"C[C@H]1OCc2c1c(N)nc1ccc(C(=O)N3CCOC[C@@H]3c3ccc(S(F)(F)(F)(F)F)cc3)cc21 [Example 416, ((3R)-4-amino-3-methyl-1,3-dihydrofuro[3,4-c]quinolin-8-yl)((3S)-3-(4-(pentafluoro-lambda~6~-sulfanyl)phenyl)-4-morpholinyl)methanone]"
22,492,,,"C[C@H]1OCc2c1c(N)nc1cnc(C(=O)N3[C@@H](C)COC[C@H]3c3ccc(C(F)(F)F)cn3)cc21 (racemic) [Example 307, ((3R)-4-amino-3-methyl-1,3-dihydrofuro[3,4-c][1,7]naphthyridin-8-yl)((3R,5S)-3-methyl-5-(5-(trifluoromethyl)-2-pyridinyl)-4-morpholinyl)methanone and ((3R)-4-amino-3-methyl-1,3-dihydrofuro[3,4-c][1,7]naphthyridin-8-yl)((3S,5R)-3-methyl-5-(5-(trifluoromethyl)-2-pyridinyl)-4-morpholinyl)methanone]"
74,8400,,,"Cn1ncc2c(N)nc3cc(F)c(C(=O)N4CC(c5ccc(C(F)(F)F)cn5)C4)cc3c21 [Example 428, (4-amino-7-fluoro-1-methyl-1H-pyrazolo[4,3-c]quinolin-8-yl)(3-(5-(trifluoromethyl)-2-pyridinyl)-1-azetidinyl)methanone]"
> 1000,7490,,,"Nc1nc2ccc(C(=O)N3CCOC[C@@H]3c3ccc(C(F)(F)F)cc3)cc2c2ccsc12 (single isomer, unassigned) [Example 488]"
15,190,,,"C[C@H]1COC[C@@H](c2ccc(OC(F)(F)F)cn2)N1C(=O)c1cc2c3c(c(N)nc2cc1F)COC3 (racemic) [Example 378, (4-amino-7-fluoro-1,3-dihydrofuro[3,4-c]quinolin-8-yl)((3R,5S)-3-methyl-5-(5-(trifluoromethoxy)-2-pyridinyl)-4-morpholinyl)methanone and (4-amino-7-fluoro-1,3-dihydrofuro[3,4-c]quinolin-8-yl)((3S,5R)-3-methyl-5-(5-(trifluoromethoxy)-2-pyridinyl)-4-morpholinyl)methanone]"
211,9120,,,"Nc1nc2cnc(C(=O)N3CCOC[C@@H]3c3ccc(OC(F)F)cn3)cc2c2c1COC2 [Example 516, (4-amino-1,3-dihydrofuro[3,4-c][1,7]naphthyridin-8-yl)((3S)-3-(5-(difluoromethoxy)-2-pyridinyl)-4-morpholinyl)methanone]"
